Laboratory results from paper doi:10.1101/2025.11.21.689733v1, “Identification and Characterization of a Small Molecule Ligand for the Huntingtin-HAP40 Complex” (biorxiv, 2025).
Blank lines part the entries; values can stand above or below the compound they belong to.

Experiments:
Assay type in all cases: binding
HTTQ23-HAP40 (HTT-HAP40) [1] = molecular target: T1, HTTQ23-HAP40 (HTT-HAP40) (Homo sapiens, UniProt P23610+P42858, P42858:INS38QQ); experiment: SPR, […] model
T1 construct: full-length HTT (3144 aa, polyQ tract Q23) co-complex with HAP40, ~390 kDa; C-terminal Avi-tag biotinylated (BirA) for SPR; Sf9 baculovirus

HTTQ54-HAP40 = molecular target: T2, HTTQ54-HAP40 (Homo sapiens, UniProt P23610+P42858, P42858:INS38QQQQQQQQQQQQQQQQQQQQQQQQQQQQQQQQQ); experiment: SPR
T2 construct: gene HTT; full-length HTT with polyQ tract of 54 residues in complex with HAP40; C-terminal Avi-tag biotinylated; Sf9 baculovirus
Description: SPR on HTTQ54-HAP40 | binding affinity was indistinguishable between wild-type (Q23) HTT-HAP40 and its expanded form (Q54)

HTTQ23-HAP40 (HTT-HAP40) [2] = molecular target: T1, HTTQ23-HAP40 (HTT-HAP40); experiment: SPR, steady state, […] model; conditions: read-out: apparent KD
HTTQ23-HAP40 (HTT-HAP40) [3] = molecular target: T1, HTTQ23-HAP40 (HTT-HAP40); experiment: SPR, […] model; conditions: pH 7.4, 150 mM NaCl, 4% DMSO

T1 sequence (P42858 with tags, fused parts or gaps INS38QQ): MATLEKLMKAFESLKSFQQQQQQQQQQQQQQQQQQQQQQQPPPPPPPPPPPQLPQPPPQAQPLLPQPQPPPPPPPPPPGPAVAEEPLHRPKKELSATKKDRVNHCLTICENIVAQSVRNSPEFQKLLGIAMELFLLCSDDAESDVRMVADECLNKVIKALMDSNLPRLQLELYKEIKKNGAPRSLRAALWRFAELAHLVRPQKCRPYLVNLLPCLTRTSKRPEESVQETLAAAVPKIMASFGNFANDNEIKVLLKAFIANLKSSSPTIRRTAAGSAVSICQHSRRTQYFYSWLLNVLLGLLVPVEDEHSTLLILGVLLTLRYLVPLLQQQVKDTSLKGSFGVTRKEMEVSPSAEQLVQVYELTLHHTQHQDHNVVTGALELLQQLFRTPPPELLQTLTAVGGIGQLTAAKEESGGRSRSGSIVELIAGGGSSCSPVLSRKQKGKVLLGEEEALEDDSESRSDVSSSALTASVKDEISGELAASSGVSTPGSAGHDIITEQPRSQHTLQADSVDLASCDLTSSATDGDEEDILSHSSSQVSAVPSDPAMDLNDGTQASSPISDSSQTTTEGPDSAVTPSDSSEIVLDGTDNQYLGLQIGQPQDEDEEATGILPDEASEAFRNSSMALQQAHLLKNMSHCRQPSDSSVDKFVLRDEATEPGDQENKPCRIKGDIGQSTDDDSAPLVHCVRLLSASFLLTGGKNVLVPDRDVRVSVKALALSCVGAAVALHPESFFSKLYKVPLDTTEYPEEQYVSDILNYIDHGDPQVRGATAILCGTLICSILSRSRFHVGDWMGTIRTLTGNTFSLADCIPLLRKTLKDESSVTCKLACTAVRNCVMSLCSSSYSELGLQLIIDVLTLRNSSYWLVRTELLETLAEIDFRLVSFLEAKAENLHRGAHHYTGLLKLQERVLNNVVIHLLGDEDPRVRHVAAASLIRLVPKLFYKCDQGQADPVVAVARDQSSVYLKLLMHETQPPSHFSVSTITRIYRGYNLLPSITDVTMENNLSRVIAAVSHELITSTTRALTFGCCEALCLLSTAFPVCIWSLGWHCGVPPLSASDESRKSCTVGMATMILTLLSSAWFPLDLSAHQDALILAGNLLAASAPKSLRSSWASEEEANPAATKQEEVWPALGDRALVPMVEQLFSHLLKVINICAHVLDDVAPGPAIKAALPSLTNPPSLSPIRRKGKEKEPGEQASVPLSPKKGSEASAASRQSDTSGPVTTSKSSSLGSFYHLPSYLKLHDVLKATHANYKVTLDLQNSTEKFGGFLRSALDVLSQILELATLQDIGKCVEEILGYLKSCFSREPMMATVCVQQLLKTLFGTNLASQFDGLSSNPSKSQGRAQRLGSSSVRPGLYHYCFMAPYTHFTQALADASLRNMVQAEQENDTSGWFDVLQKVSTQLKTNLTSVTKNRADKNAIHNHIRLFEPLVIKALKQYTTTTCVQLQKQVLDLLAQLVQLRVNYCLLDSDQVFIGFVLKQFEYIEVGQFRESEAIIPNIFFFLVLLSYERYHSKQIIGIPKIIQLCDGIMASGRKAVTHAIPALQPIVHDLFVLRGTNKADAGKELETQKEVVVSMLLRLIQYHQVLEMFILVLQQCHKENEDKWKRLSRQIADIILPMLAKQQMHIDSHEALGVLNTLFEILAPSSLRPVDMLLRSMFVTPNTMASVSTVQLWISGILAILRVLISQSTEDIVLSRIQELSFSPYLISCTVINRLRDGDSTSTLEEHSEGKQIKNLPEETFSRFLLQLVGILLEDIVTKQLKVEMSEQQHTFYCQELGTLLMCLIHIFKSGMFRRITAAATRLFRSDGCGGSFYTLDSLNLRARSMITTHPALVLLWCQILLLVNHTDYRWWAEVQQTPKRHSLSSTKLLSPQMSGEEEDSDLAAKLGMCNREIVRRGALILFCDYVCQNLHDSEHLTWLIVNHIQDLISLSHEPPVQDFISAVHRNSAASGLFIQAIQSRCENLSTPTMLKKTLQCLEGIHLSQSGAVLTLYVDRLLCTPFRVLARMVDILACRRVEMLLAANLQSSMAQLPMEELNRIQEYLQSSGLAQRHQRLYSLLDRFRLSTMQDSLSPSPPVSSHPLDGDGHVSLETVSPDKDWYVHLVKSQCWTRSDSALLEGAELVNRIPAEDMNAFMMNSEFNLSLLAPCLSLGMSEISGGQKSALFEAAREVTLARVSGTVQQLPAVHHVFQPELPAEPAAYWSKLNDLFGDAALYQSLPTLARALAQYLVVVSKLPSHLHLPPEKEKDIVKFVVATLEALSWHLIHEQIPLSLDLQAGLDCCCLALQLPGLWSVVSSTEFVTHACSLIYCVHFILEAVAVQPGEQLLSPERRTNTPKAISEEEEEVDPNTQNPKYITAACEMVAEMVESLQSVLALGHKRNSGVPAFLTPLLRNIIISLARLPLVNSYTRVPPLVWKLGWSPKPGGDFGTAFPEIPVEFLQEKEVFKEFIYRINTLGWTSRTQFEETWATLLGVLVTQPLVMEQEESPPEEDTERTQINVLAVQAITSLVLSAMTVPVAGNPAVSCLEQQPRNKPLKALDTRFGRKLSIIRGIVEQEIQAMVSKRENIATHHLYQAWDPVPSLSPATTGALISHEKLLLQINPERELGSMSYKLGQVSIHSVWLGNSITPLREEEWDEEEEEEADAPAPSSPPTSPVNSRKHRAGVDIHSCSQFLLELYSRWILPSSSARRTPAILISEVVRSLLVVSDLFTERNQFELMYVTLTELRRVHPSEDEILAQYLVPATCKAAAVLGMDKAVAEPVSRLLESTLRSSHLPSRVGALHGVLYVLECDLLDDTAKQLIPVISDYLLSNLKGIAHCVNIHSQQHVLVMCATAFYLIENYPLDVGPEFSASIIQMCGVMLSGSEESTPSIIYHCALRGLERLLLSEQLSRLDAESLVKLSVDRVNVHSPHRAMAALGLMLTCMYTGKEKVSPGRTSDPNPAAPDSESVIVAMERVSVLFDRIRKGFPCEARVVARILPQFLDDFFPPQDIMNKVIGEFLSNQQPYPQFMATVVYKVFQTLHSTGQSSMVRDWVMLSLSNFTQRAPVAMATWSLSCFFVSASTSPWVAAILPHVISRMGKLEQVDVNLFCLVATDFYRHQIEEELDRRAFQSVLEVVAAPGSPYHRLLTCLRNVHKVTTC
T1 sequence (P23610 whole entry, stated change not applied): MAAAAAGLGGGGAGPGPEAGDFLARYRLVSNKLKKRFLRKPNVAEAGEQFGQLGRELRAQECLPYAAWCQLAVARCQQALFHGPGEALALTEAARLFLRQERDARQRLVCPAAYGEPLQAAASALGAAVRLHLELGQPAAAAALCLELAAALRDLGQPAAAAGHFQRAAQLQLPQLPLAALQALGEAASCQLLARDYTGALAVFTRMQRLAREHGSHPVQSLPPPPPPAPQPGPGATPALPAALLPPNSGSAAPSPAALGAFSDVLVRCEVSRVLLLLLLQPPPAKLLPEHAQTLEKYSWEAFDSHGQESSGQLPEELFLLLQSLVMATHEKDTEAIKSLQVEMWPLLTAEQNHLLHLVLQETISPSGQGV

Kd (HTTQ23-HAP40 (HTT-HAP40) [1]): 3.5 ± 1 µM
Structure (SMILES): Cn1ncc2ccc(CNc3ccccc3C3CC(F)(F)C3)cc21 [compound 3, 3]

Kd (HTTQ54-HAP40): 4 ± 1 µM
Kd (HTTQ23-HAP40 (HTT-HAP40) [2]): 5 ± 2 µM
Structure (SMILES): Cn1ncc2ccc(CNc3ccccc3C3CC3(F)F)cc21 (racemic) [compound 1, AS-MS Hit 1]

Kd (HTTQ23-HAP40 (HTT-HAP40) [2]): 4 ± 2 µM
Structure (SMILES): Cn1ncc2ccc(CNc3ccccc3[C@H]3CC3(F)F)cc21 (single isomer, unassigned; peak 2) [compound 1, Peak 2 of AS-MS Hit 1]

Structure (SMILES): Cc1nn(C)c2cc(CNc3ccccc3C3CCC(F)(F)C3)ccc12 (centres unmarked) [compound 21, 21]
KD (HTTQ23-HAP40 (HTT-HAP40) [3]): These modifications were well-tolerated but did not improve affinity
